From patent US20120190613A1, “ECHINOCANDIN DERIVATIVES” (priority 2009, published 2012)
Converted amounts (≈) assume the structure as drawn. Where two headings read alike, the source gives them in different places. Marks after values point to notes of the source that are not given here. Starred links: 1 amine or outer side, 2 acyl side, 3 side chain; linkers in the order of their positions; H or OH if unused. Positions of bridges follow the written chain, without caps; N, C: chain ends. Non-standard residues stand in square brackets, D forms with d. Residues, ends and D or L forms follow the SMILES beside them. *: point of attachment. pTerphenylCO(4''-OnC5H11) = CCCCCOc1ccc(-c2ccc(-c3ccc(C(=O)*)cc3)cc2)cc1; Orn(4R-OH,5R-OH) = O=C([C@H](C[C@@H](O)[C@@H](O)N[*:3])N[*:1])[*:2]; hTyr(3S-OH,4S-OH) = N[C@H](C(=O)O)[C@H](O)[C@@H](O)c1ccc(O)cc1; Pro(3S-OH,4S-Me) = C[C@H]1CN[C@H](C(=O)O)[C@H]1O; Hyp = O=C(O)[C@@H]1C[C@@H](O)CN1

Tests used:
C. albicans R303 = test: Mouse candidiasis infection model, C. albicans density in kidneys; assay type: in vivo, female CD-1 mice; details: for Difference from 24-hr control / Mean log10 CFU/kidneys (±SD) / Mean log10 CFU/kidneys (±SEM) / Difference from 24-h control: kidneys at 24 hr
Procedure: The objective of these studies was to evaluate the efficacy of test compounds in the mouse candidiasis infection model.
The strain, C. albicans R303 was transferred from frozen storage onto Sabauroud dextrose agar (SDA) plates and grown for ˜24 hr at 35° C. The inoculum was prepared by transferring colonies from the plate to phosphate buffered saline (PBS) and the concentration adjusted to 10^6 CFU/mL with the aid of a spectrophotometer. The stock was diluted 1:9 to prepare the inoculum. Prior to each run the concentration was verified using the dilution plate count method.
The female CD-1 mice used in this study were obtained from Charles River Laboratories, Portage, MI. The animals were approximately seven-weeks-old at the start of the study and weighed about 16-26 g.
In one approach, mice were made neutropenic with IP injections of cyclophosphamide (150 mg/kg in 10 mL/kg) at 4 and 1 day before inoculation. Each animal was inoculated with the appropriate concentration by injecting 0.1 mL of inoculum into a tail vein. The test compounds were administered IP at 2 hr after infection.
The kidneys were collected from four mice in control group 1 (untreated) at 2 hr after infection, and from the remaining mice in the study at 24 hr after infection. Kidneys were removed aseptically from each mouse and were combined in a sterile tube. An aliquot (2 mL) of sterile PBS was added to each tube and the contents homogenized with a tissue homogenizer (Polytron 3100). Serial dilutions of the tissue homogenates were conducted and 0.1 mL aliquots were spread on SDA plates and the plates incubated at 35° C. overnight. The CFU/kidneys were determined from colony counts. Data were analyzed using one-way ANOVA with the Tukey-Kramer Multiple Comparisons Test (GraphPad InStat version 3.06, GraphPad Software, San Diego, Calif.).
Treatments were administered at 2 hr after infection with 2.1×10^5 CFU/mL of the organism. Data are the means of four mice.
Treatments were administered at 2 hr after infection with 6.4×10^5 CFU/mL of the organism. Data are the means of four mice.
Treatments were administered at 2 hr after infection with 3.8×10^5 CFU/mL of the organism. Data are the means of four mice.
Treatments were administered at 2 hr after infection with 3.8×10^5 CFU/rnL of the organism. Data are the means of four mice.

A. flavus 626 ATCC 64025 = test: MIC by broth microdilution against A. flavus; assay type: cell-based; details: growth reduction of 50%
Procedure: (§1) MIC values (μg/mL) of echinocandin class compounds of the invention against various Candida and Aspergillus species were obtained as follows. Test organisms were obtained from the American Type Culture Collection (Manassas, Va.). The isolates were maintained at −80 ° C., then thawed and sub-cultured one day prior to testing (seven days for Aspergillus strains).
(§2) The mouse serum was heat-inactivated for 30 minutes at 56° C., and filtered through a 0.2 μm low protein binding filter unit prior to use.
(§3) MIC values were determined using broth microdilution. The wells of the daughter plates ultimately contained 180 μL of RPMI-1640 medium with and without mouse serum, 10 μL of drug solution, and 10 μL of yeast or fungal inoculum.
(§4) Prior to susceptibility testing, fungal isolates were removed from frozen storage, thawed at room temperature, and subcultured to Potato Dextrose Agar. The Candida strains were incubated overnight at 35° C. and the Aspergillus strains for 7 days at 25° C. Yeast colonies were inoculated into sterile saline and adjusted to the turbidity of a 0.5 McFarland standard. Inoculums from Aspergillus strains were prepared by washing the surface of an agar slant with 1 mL of sterile saline containing 0.05% of Tween 20. The resulting colloidial suspensions were adjusted to an optical density of 0.09 to 0.11 at λ 625 nm.
(§5) Both the yeast and filamentous fungus suspensions were further diluted 1:100 in RPMI-1640 medium and dispensed into sterile reservoirs and used to inoculate the daughter plates. 10 μL of standardized inoculum was delivered into each well. This yielded a final cell concentration in the daughter plates of approximately 2.5×10^3 colony-forming units/mL. Plates were incubated at 35° C. for approximately 48 hr.
(§6) Following incubation, microplates were viewed from the bottom using a plate viewer.

[1] = system: C. parapsilosis 630 ATCC 90018; test: MIC by broth microdilution against C. parapsilosis; assay type: cell-based
Procedure: as §1, §2, §3, §4, §5, §6

[2] = system: C. albicans 104 ATCC 90028; test: MIC by broth microdilution against C. albicans; assay type: cell-based
Procedure: as §1, §2, §3, §4, §5, §6

[3] = First run, 1 mg/kg IP 2 hr after infection
[4] = First run, 1 mg/kg IP 2 hr after infection, neutropenic mice
[5] = Second run, 1 mg/kg IP 2 hr after infection
[6] = Third run, 0.5 mg/kg IP 2 hr after infection
[7] = Third run, 1.5 mg/kg IP 2 hr after infection
[8] = Third run, 4.5 mg/kg IP 2 hr after infection
[9] = Candida albicans, ATCC90028, 48 h, 0% mouse serum
[10] = Fourth run, 0.5 mg/kg IP 2 hr after infection
[11] = Fourth run, 1.5 mg/kg IP 2 hr after infection
[12] = Fourth run, 4.5 mg/kg IP 2 hr after infection

CCCCCOc1ccc(-c2ccc(-c3ccc(C(=O)N[C@H]4C[C@@H](O)[C@@H](O)NC(=O)[C@@H]5[C@@H](O)[C@@H](C)CN5C(=O)[C@H]([C@@H](C)O)NC(=O)[C@H]([C@H](O)[C@@H](O)c5ccc(O)cc5)NC(=O)[C@@H]5C[C@@H](O)CN5C(=O)[C@H]([C@@H](C)O)NC4=O)cc3)cc2)cc1 [Anidulafungin, anidulafungin, reference compound] ({pTerphenylCO(4''-OnC5H11)}-[Orn(4R-OH,5R-OH)]T[Hyp][hTyr(3S-OH,4S-OH)]T[Pro(3S-OH,4S-Me)]; lactam 1-C)
Difference from 24-hr control (C. albicans R303; [3]): −1.68*** log10 CFU/kidneys
Mean log10 CFU/kidneys (±SD) (C. albicans R303; [4]): 3.09 ± 0.61 log10 CFU/kidneys
Difference from 24-hr control (C. albicans R303; [5]): −1.83*** log10 CFU/kidneys
Mean log10 CFU/kidneys (±SD) (C. albicans R303; [5]): 3.37 ± 0.72 log10 CFU/kidneys
Difference from 24-hr control (C. albicans R303; [6]): −0.47 ns log10 CFU/kidneys
Mean log10 CFU/kidneys (±SEM) (C. albicans R303; [6]): 4.41 ± 0.12 log10 CFU/kidneys
Difference from 24-hr control (C. albicans R303; [7]): −2.11*** log10 CFU/kidneys
Mean log10 CFU/kidneys (±SEM) (C. albicans R303; [7]): 2.77 ± 0.20 log10 CFU/kidneys
Difference from 24-hr control (C. albicans R303; [8]): −3.78*** log10 CFU/kidneys
Mean log10 CFU/kidneys (±SEM) (C. albicans R303; [8]): 1.10 ± 0.38 log10 CFU/kidneys
MIC (A. flavus 626 ATCC 64025; Aspergillus flavus, ATCC64025, 48 h, 0% mouse serum): < 0.015 µg/mL
MIC (A. flavus 626 ATCC 64025; Aspergillus flavus, ATCC64025, 48 h, 50% mouse serum): 0.03 µg/mL (≈ 0.0263 µM)
MIC ([1]; Lodderomyces parapsilosis, ATCC90018, 48 h, 0% mouse serum): 2 µg/mL (≈ 1.75 µM)
MIC ([1]; Lodderomyces parapsilosis, ATCC90018, 48 h, 50% mouse serum): > 16 µg/mL
MIC [2, 9]: 0.03 µg/mL (≈ 0.0263 µM)
MIC ([2]; Candida albicans, ATCC90028, 48 h, 50% mouse serum): 0.06 µg/mL (≈ 0.0526 µM)

CC[C@H](C)C[C@H](C)CCCCCCCCC(=O)N[C@H]1C[C@@H](O)[C@@H](NCCN)NC(=O)[C@@H]2[C@@H](O)CCN2C(=O)[C@H]([C@H](O)CCN)NC(=O)[C@H]([C@H](O)[C@@H](O)c2ccc(O)cc2)NC(=O)[C@@H]2C[C@@H](O)CN2C(=O)[C@H]([C@@H](C)O)NC1=O [Caspofungin, caspofungin, reference compound]
Difference from 24-hr control (C. albicans R303; [3]): −3.14*** log10 CFU/kidneys
Mean log10 CFU/kidneys (±SD) (C. albicans R303; [4]): 1.63 ± 0.29 log10 CFU/kidneys
Difference from 24-h control (C. albicans R303; [10]): −4.88*** log10 CFU/kidneys
Mean log10 CFU/kidneys (±SEM) (C. albicans R303; [10]): 0.33 ± 0.33 log10 CFU/kidneys
Difference from 24-h control (C. albicans R303; [11]): −4.48*** log10 CFU/kidneys
Mean log10 CFU/kidneys (±SEM) (C. albicans R303; [11]): 0.73 ± 0.42 log10 CFU/kidneys
Difference from 24-h control (C. albicans R303; [12]): −5.20*** log10 CFU/kidneys
Mean log10 CFU/kidneys (±SEM) (C. albicans R303; [12]): 0.00 ± 0.00 log10 CFU/kidneys
Difference from 24-hr control (C. albicans R303; [5]): −3.59*** log10 CFU/kidneys
Mean log10 CFU/kidneys (±SD) (C. albicans R303; [5]): 1.61 ± 0.23 log10 CFU/kidneys
MIC (A. flavus 626 ATCC 64025; Aspergillus flavus, ATCC64025, 0% mouse serum, 48 hr, read-out: MIC): 0.06 µg/mL (≈ 0.0549 µM)
MIC ([1]; Lodderomyces parapsilosis, ATCC90018, 48 h, 0% mouse serum, read-out: MIC): 0.5 µg/mL (≈ 0.457 µM)
MIC ([1]; Lodderomyces parapsilosis, ATCC90018, 48 h, 50% mouse serum, read-out: MIC): 2 µg/mL (≈ 1.83 µM)
MIC [2, 9]: 0.125 µg/mL (≈ 0.114 µM)
MIC ([2]; Candida albicans, ATCC90028, 50% mouse serum, 48 hr, read-out: MIC): 0.06 µg/mL (≈ 0.0549 µM)

CCC(C)CC(C)CCCCCCCCC(=O)NC1CC(O)C(NCCNC(=O)OCCOC)NC(=O)C2C(O)CCN2C(=O)C(C(O)CCN)NC(=O)C(C(O)C(O)c2ccc(O)cc2)NC(=O)C2CC(O)CN2C(=O)C(C(C)O)NC1=O (stereo not drawn) [Compound 1]
Difference from 24-hr control (C. albicans R303; [3]): −0.13 ns log10 CFU/kidneys
Mean log10 CFU/kidneys (±SD) (C. albicans R303; [4]): 4.65 ± 0.26 log10 CFU/kidneys
Difference from 24-hr control (C. albicans R303; First run, 5 mg/kg IP 2 hr after infection): −2.87*** log10 CFU/kidneys
Mean log10 CFU/kidneys (±SD) (C. albicans R303; First run, 5 mg/kg IP 2 hr after infection, neutropenic mice): 1.90 ± 0.21 log10 CFU/kidneys
Reduction of yeast density in kidneys (C. albicans R303; First run, 5 mg/kg dose, versus 24-hr infected control): 2.87 logs
MIC (A. flavus 626 ATCC 64025; 0% mouse serum, 48 hr): 0.125 µg/mL (≈ 0.105 µM)
MIC (A. flavus 626 ATCC 64025; 50% mouse serum, 48 hr): 0.5 µg/mL (≈ 0.418 µM)
MIC ([1]; 0% mouse serum, 48 hr): 2 µg/mL (≈ 1.67 µM)
MIC ([1]; 50% mouse serum, 48 hr): >16 µg/mL
MIC ([2]; 0% mouse serum, 48 hr): 0.5 µg/mL (≈ 0.418 µM)
MIC ([2]; 50% mouse serum, 48 hr): 1 µg/mL (≈ 0.837 µM)
